The results in this text go back to patent US9518052B2, “Pyrazolopyridines and pyrazolopyrimidines” (Pfizer Inc., priority 2014, dated 2016).

What all share (format): biochemical
Common to all, as to conditions: Caliper assay at 1 mM ATP

Assay [1] deals with TYK2 (Homo sapiens (Human), UniProt P29597). The assay is described as follows: JAK Caliper Enzyme Assay at 1 mM ATP (TYK2).
Assay [2] addresses JAK2 (Homo sapiens (Human), UniProt O60674). Description: JAK Caliper Enzyme Assay at 1 mM ATP (JAK2).
The target of assay [3] is JAK1 (Homo sapiens (Human), UniProt P23458). Description: JAK Caliper Enzyme Assay at 1 mM ATP (JAK1).
JAK1, sequence (P23458 whole entry, species assumed): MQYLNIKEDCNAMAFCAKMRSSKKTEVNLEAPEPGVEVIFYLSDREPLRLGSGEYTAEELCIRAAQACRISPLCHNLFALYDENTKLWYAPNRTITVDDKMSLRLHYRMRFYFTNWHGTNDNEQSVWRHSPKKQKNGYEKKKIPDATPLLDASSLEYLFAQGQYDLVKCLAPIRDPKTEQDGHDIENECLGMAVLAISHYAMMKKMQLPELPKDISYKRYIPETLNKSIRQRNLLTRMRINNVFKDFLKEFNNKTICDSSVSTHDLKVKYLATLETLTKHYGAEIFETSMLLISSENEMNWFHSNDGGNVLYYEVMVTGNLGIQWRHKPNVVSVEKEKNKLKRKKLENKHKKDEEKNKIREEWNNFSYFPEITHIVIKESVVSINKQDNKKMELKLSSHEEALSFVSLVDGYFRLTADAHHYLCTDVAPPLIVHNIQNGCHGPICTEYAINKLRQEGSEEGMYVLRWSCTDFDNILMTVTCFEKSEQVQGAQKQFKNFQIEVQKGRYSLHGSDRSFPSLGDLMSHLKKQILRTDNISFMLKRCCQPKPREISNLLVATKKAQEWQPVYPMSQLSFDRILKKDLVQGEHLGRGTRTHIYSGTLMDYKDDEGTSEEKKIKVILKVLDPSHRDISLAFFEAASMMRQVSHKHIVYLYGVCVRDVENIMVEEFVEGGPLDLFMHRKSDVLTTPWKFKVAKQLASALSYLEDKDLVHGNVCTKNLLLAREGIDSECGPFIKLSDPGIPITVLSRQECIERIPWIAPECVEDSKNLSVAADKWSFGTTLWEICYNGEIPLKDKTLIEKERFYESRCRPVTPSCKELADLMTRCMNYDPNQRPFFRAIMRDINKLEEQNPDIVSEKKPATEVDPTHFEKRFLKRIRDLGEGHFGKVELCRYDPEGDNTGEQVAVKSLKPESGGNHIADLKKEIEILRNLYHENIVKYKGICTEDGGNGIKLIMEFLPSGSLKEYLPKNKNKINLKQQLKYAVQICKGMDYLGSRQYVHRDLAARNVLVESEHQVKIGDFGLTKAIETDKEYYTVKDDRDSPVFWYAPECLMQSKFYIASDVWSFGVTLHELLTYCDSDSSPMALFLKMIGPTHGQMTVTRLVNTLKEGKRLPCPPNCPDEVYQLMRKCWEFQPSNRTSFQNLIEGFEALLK
Assay [4] addresses JAK3 (Homo sapiens (Human), UniProt P52333). The assay is described as follows: JAK Caliper Enzyme Assay at 1 mM ATP (JAK3).

TYK2, sequence (P29597 whole entry, species assumed): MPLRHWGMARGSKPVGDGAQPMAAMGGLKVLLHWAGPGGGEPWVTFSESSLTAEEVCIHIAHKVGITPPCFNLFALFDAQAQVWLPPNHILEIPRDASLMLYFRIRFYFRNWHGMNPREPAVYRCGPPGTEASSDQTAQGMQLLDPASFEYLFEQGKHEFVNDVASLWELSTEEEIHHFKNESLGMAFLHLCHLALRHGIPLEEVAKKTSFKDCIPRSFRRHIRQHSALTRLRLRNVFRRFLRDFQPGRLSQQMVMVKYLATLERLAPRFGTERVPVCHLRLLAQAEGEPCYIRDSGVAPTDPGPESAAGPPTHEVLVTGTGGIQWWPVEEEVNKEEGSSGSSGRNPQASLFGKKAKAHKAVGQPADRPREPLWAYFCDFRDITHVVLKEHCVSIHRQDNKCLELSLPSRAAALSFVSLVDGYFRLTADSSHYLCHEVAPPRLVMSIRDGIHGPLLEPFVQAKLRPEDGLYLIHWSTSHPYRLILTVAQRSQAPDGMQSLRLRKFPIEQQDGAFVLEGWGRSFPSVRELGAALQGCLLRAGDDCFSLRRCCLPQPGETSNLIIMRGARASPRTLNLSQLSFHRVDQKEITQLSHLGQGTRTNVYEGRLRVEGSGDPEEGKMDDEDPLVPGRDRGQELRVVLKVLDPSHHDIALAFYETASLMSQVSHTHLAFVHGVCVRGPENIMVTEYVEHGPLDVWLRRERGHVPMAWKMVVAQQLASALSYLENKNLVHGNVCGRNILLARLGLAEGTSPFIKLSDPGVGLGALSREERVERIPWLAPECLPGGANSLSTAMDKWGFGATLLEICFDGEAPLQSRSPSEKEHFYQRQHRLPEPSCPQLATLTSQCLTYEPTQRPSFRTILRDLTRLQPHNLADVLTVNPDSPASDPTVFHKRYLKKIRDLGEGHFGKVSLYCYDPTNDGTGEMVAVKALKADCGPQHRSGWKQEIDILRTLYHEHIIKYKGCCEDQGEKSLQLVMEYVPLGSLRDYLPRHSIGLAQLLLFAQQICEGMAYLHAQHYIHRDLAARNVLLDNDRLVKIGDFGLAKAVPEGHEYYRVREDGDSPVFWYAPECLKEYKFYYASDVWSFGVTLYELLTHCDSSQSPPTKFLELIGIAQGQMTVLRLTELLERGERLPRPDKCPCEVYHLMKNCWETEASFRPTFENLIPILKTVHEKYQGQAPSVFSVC
JAK3, sequence (P52333 whole entry, species assumed): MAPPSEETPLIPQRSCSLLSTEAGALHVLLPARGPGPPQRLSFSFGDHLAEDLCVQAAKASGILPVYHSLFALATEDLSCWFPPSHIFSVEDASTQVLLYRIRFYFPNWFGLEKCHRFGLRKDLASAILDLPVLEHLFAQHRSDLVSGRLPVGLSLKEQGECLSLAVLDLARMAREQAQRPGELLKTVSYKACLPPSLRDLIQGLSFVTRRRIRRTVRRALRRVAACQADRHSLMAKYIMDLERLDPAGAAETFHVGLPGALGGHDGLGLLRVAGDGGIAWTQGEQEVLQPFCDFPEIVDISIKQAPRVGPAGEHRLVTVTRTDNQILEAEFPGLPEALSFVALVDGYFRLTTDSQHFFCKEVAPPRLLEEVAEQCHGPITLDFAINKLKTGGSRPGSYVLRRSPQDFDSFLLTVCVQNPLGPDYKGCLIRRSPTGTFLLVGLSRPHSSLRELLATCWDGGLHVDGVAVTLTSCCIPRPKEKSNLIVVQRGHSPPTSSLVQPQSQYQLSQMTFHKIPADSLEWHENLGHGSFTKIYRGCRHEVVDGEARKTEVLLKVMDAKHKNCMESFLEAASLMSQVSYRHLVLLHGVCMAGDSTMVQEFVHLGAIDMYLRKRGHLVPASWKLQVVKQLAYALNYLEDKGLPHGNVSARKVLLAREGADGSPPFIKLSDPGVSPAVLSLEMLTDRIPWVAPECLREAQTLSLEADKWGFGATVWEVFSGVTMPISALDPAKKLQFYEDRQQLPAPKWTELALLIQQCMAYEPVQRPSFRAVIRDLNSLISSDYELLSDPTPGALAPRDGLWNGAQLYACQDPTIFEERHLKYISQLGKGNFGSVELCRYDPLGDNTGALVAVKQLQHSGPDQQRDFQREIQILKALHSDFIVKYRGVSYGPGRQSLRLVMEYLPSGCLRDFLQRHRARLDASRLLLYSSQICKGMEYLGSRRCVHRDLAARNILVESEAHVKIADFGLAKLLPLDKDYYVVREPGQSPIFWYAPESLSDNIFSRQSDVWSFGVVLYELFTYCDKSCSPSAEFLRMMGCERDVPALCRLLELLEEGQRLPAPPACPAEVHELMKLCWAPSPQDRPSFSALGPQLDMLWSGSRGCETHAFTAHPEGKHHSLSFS
JAK2, sequence (O60674 whole entry, species assumed): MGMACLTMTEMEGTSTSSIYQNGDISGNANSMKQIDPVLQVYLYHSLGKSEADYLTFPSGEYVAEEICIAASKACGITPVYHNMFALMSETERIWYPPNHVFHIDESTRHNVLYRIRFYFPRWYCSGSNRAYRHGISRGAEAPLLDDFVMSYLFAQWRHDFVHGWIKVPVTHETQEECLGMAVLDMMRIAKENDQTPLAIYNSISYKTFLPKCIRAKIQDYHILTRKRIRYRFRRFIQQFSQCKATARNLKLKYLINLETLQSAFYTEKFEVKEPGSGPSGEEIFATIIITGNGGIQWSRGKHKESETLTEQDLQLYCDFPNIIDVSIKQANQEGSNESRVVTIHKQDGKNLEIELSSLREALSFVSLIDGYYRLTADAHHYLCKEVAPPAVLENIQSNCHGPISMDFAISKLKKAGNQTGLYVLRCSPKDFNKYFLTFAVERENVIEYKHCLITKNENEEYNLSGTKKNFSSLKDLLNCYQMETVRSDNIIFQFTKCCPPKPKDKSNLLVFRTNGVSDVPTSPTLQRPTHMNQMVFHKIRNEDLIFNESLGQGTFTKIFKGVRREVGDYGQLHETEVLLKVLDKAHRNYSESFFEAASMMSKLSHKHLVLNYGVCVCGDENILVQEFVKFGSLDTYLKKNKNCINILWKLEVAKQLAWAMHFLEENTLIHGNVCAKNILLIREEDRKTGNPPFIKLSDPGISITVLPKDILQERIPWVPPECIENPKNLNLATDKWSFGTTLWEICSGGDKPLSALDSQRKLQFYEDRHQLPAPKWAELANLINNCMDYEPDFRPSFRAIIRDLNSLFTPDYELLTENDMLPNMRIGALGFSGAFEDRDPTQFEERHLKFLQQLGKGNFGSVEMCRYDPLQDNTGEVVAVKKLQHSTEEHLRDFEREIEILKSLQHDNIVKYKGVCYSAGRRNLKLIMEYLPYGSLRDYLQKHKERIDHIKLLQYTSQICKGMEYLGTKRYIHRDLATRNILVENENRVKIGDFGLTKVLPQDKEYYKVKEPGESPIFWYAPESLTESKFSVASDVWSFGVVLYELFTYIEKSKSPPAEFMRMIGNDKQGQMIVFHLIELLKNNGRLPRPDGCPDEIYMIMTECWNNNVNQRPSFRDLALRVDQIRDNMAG

As usually defined, the IC50 is the point on the concentration scale where inhibition reaches its midpoint. A higher IC50 goes with weaker potency in that assay. Turning to `CCN(c1ncccc1CNc1nc(-c2cc(F)c(O)cc2CC(F)(F)F)cc2[nH]nc(C(=O)NC)c12)S(C)(=O)=O` [Example 63, 4-[({2-[ethyl(methylsulfonyl)amino]pyridin-3-yl}methyl)amino]-6-[5-fluoro-4-hydroxy-2-(2,2,2-trifluoroethyl)phenyl]-N-methyl-1H-pyrazolo[4,3-c]pyridine-3-carboxamide], the IC50 in assay [1] was 107 nM; in assay [2], 22.5 nM; in assay [3] it was 5 nM; in assay [4], 82.1 nM.

`CN(c1ccccc1CNc1nc(-c2cc(F)c(O)cc2CC(F)(F)F)cc2[nH]nc(C(N)=O)c12)S(=O)(=O)c1ccc(N2CCOCC2)nc1` [Example 65, 6-[5-fluoro-4-hydroxy-2-(2,2,2-trifluoroethyl)phenyl]-4-{[2-(methyl{[6-(morpholin-4-yl)pyridin-3-yl]sulfonyl}amino)benzyl]amino}-1H-pyrazolo[4,3-c]pyridine-3-carboxamide]: the IC50 is 126 nM in assay [1], 83.8 nM in assay [2], 23.3 nM in assay [3] and 283 nM in assay [4].

Consider `CN(c1ccccc1CNc1nc(-c2cc(F)c(O)cc2CC(F)(F)F)cc2[nH]nc(C(N)=O)c12)S(=O)(=O)CCCN1CCOCC1` [Example 66, 6-[5-fluoro-4-hydroxy-2-(2,2,2-trifluoroethyl)phenyl]-4-{[2-(methyl{[3-(morpholin-4-yl)propyl]sulfonyl}-amino)benzyl]amino}-1H-pyrazolo[4,3-c]pyridine-3-carboxamide], for which the IC50 came to 81.3 nM in assay [1], 14.8 nM in assay [2], 3.5 nM in assay [3] and 60 nM in assay [4].

Consider `CNC(=O)c1n[nH]c2cc(-c3cc(F)c(O)cc3CC(F)(F)F)nc(NCc3cc(C)cnc3N(C)S(C)(=O)=O)c12` [Example 67, 6-[5-fluoro-4-hydroxy-2-(2,2,2-trifluoroethyl)phenyl]-N-methyl-4-[({5-methyl-2-[methyl(methylsulfonyl)amino]pyridin-3-yl}methyl)amino]-1H-pyrazolo[4,3-c]pyridine-3-carboxamide], for which the IC50 amounted to 2030 nM in assay [1], 48.2 nM in assay [2], 16.3 nM in assay [3] and 72.8 nM in assay [4].

For the molecule `CNC(=O)c1n[nH]c2cc(-c3cc(F)c(O)cc3CC(F)(F)F)nc(NCc3ccccc3N(C)S(=O)(=O)c3cccnc3)c12` [Example 68, 6-[5-fluoro-4-hydroxy-2-(2,2,2-trifluoroethyl)phenyl]-N-methyl-4-({2-[methyl(pyridin-3-ylsulfonyl)amino]-benzyl}amino)-1H-pyrazolo[4,3-c]pyridine-3-carboxamide], the IC50 stood at 72.3 nM in assay [1], 72.7 nM in assay [2], 14.2 nM in assay [3] and 253 nM in assay [4].

On to `CNC(=O)c1n[nH]c2cc(-c3cc(F)c(O)cc3CC(F)(F)F)nc(NCc3ccccc3N(C)S(=O)(=O)c3ccc(C)nc3)c12` [Example 69, 6-[5-fluoro-4-hydroxy-2-(2,2,2-trifluoroethyl)phenyl]-N-methyl-4-[(2-{methyl[(6-methylpyridin-3-yl)sulfonyl]amino}benzyl)amino]-1H-pyrazolo[4,3-c]pyridine-3-carboxamide], for which the IC50 in assay [1] was determined as 66.8 nM; in assay [2], 63.7 nM; in assay [3] it was 16.2 nM; in assay [4], 257 nM.

Take `Cc1ccc(S(=O)(=O)N(C)c2ccccc2CNc2nc(-c3cc(F)c(O)cc3CC(F)(F)F)cc3[nH]nc(C(N)=O)c23)cn1` [Example 70, 6-[5-fluoro-4-hydroxy-2-(2,2,2-trifluoroethyl)phenyl]-4-[(2-{methyl[(6-methylpyridin-3-yl)sulfonyl]amino}benzyl)amino]-1H-pyrazolo[4,3-c]pyridine-3-carboxamide]: the IC50 in assay [1] was found to be 79.4 nM; in assay [2], 52.4 nM; in assay [3], 12 nM; in assay [4], 208 nM.

As for `CCN(c1ncc(Cl)cc1CNc1nc(-c2cc(F)c(O)cc2CC(F)(F)F)cc2[nH]nc(C(N)=O)c12)S(C)(=O)=O` [Example 71, 4-[({5-chloro-2-[ethyl(methylsulfonyl)amino]pyridin-3-yl}methyl)amino]-6-[5-fluoro-4-hydroxy-2-(2,2,2-trifluoroethyl)phenyl]-1H-pyrazolo[4,3-c]pyridine-3-carboxamide], the IC50 in assay [1] came to 2750 nM; in assay [2], 156 nM; in assay [3], 44.1 nM; in assay [4] it was 359 nM.

Regarding `CN(c1ncc(Cl)cc1CNc1nc(-c2cc(F)c(O)cc2CC(F)(F)F)cc2[nH]nc(C(N)=O)c12)S(C)(=O)=O` [Example 72, 4-[({5-chloro-2-[methyl(methylsulfonyl)amino]pyridin-3-yl}methyl)amino]-6-[5-fluoro-4-hydroxy-2-(2,2,2-trifluoroethyl)phenyl]-1H-pyrazolo[4,3-c]pyridine-3-carboxamide], the IC50 in assay [1] turned out to be 3450 nM; in assay [2] it was 135 nM; in assay [3], 44.8 nM; in assay [4], 198 nM.

Take `CCc1cc(O)c(F)cc1-c1cc2[nH]nc(C(=O)NC)c2c(NCc2ccccc2N(C)S(N)(=O)=O)n1` [Example 73, 6-(2-ethyl-5-fluoro-4-hydroxyphenyl)-N-methyl-4-({2-[methyl(sulfamoyl)-amino]benzyl}amino)-1H-pyrazolo[4,3-c]pyridine-3-carboxamide]: the IC50 in assay [1] is 33.9 nM; in assay [2], 18.8 nM; in assay [3], 5.4 nM; in assay [4] it was 80.9 nM.

For the molecule `Cc1ccc(NC(=O)c2n[nH]c3cc(-c4cc(F)c(O)cc4CC(F)(F)F)nc(NCc4ccccc4N(C)S(C)(=O)=O)c23)cn1` [Example 76, 6-[5-Fluoro-4-hydroxy-2-(2,2,2-trifluoroethyl)phenyl]-4-({2-[methyl(methylsulfonyl)amino]-benzyl}amino)-N-(6-methylpyridin-3-yl)-1H-pyrazolo[4,3-c]pyridine-3-carboxamide], the IC50 in assay [1] is 316 nM; in assay [2], 113 nM; in assay [3], 29.6 nM; in assay [4] it was 475 nM.

On to `CN(c1ccccc1CNc1nc(-c2cc(F)c(O)cc2CC(F)(F)F)cc2[nH]nc(C(N)=O)c12)S(C)(=O)=O` [Example 77, 6-[5-Fluoro-4-hydroxy-2-(2,2,2-trifluoroethyl)phenyl]-4-({2-[methyl(methylsulfonyl)amino]benzyl}amino)-1H-pyrazolo[4,3-c]pyridine-3-carboxamide], for which the IC50 in assay [1] came out at 27.1 nM; in assay [2], 15.1 nM; in assay [3], 3.3 nM; in assay [4], 63.6 nM.

With `CN(c1ncc(F)cc1CNc1nc(-c2cc(F)c(O)cc2CC(F)(F)F)cc2[nH]nc(C(N)=O)c12)S(C)(=O)=O` [Example 78, 6-[5-Fluoro-4-hydroxy-2-(2,2,2-trifluoroethyl)phenyl]-4-[({5-fluoro-2-[methyl(methyl-sulfonyl)amino]pyridin-3-yl}methyl)amino]-1H-pyrazolo[4,3-c]pyridine-3-carboxamide], the IC50 in assay [1] is 930 nM; in assay [2], 39.4 nM; in assay [3], 5.9 nM; in assay [4] it was 89.9 nM.

Regarding `CCN(c1ncc(F)cc1CNc1nc(-c2cc(F)c(O)cc2CC(F)(F)F)cc2[nH]nc(C(N)=O)c12)S(C)(=O)=O` [Example 79, 4-[({2-[ethyl(methylsulfonyl)amino]-5-fluoropyridin-3-yl}methyl)amino]-6-[5-fluoro-4-hydroxy-2-(2,2,2-trifluoroethyl)phenyl]-1H-pyrazolo[4,3-c]pyridine-3-carboxamide], the IC50 in assay [1] was determined as 698 nM; in assay [2], 59.1 nM; in assay [3], 10.7 nM; in assay [4] it was 175 nM.

On to `CCN(c1nccnc1CNc1nc(-c2cc(F)c(O)cc2CC(F)(F)F)cc2[nH]nc(C(N)=O)c12)S(C)(=O)=O` [Example 80, 4-[({3-[ethyl(methylsulfonyl)amino]pyrazin-2-yl}methyl)amino]-6-[5-fluoro-4-hydroxy-2-(2,2,2-trifluoroethyl)phenyl]-1H-pyrazolo[4,3-c]pyridine-3-carboxamide], for which the IC50 in assay [1] turned out to be 167 nM; in assay [2] it was 16.2 nM; in assay [3], 2.9 nM; in assay [4], 49.2 nM.

Consider `CCN(c1ccc(F)cc1CNc1nc(-c2cc(F)c(O)cc2CC(F)(F)F)cc2[nH]nc(C(N)=O)c12)S(C)(=O)=O` [Example 83, 4-((2-(N-ethylmethylsulfonamido)-5-fluorobenzyl)amino)-6-(5-fluoro-4-hydroxy-2-(2,2,2-trifluoro-ethyl)phenyl)-1H-pyrazolo[4,3-c]pyridine-3-carboxamide], for which the IC50 in assay [1] was 139 nM; in assay [2], 63.3 nM; in assay [3] it was 12.1 nM; in assay [4] it was 201 nM.

For `CCN(c1ccc(Cl)cc1CNc1nc(-c2cc(F)c(O)cc2CC(F)(F)F)cc2[nH]nc(C(N)=O)c12)S(C)(=O)=O` [Example 84, 4-((5-chloro-2-(N-ethylmethylsulfonamido)benzyl)amino)-6-(5-fluoro-4-hydroxy-2-(2,2,2-trifluoro-ethyl)phenyl)-1H-pyrazolo[4,3-c]pyridine-3-carboxamide], the IC50 amounted to 880 nM in assay [1], 142 nM in assay [2], 27.6 nM in assay [3] and 537 nM in assay [4].

As for `CCS(=O)(=O)N(C)c1ccccc1CNc1nc(-c2cc(F)c(O)cc2CC(F)(F)F)cc2[nH]nc(C(N)=O)c12` [Example 85, 6-(5-fluoro-4-hydroxy-2-(2,2,2-trifluoroethyl)phenyl)-4-((2-(N-methylethyl-sulfonamido)benzyl)-amino)-1H-pyrazolo[4,3-c]pyridine-3-carboxamide], the IC50 in assay [1] is 81.4 nM; in assay [2] it was 47.2 nM; in assay [3] it was 7.8 nM; in assay [4], 156 nM.
